System: 313798-341-R-J2-PDC spheroids, viability
Test: Anticancer human tumor 313798-341-R-J2-PDC patient-derived cervical squamous cell carcinoma cell line growth inhibition [PI3K]
Conditions: spheroids with HUVEC and MSC; for IC50: curve of first compound; for viability, T/C: stronger effect = lower value
Procedure, shortened: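 Tumor cells were combined with HUVEC and MSCs into spheroids, then dosed with PI3K-inhibitor combinations over half-log ranges capped near clinical Cmax or 10 microM.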

[1] = second compound 0.00316 µM, first compound 0.00316 µM
[2] = second compound 0.00316 µM, first compound 0.01 µM
[3] = second compound 0.00316 µM, first compound 0.0316 µM
[4] = second compound 0.00316 µM, first compound 0.1 µM
[5] = second compound 0.01 µM, first compound 0.00316 µM
[6] = second compound 0.01 µM, first compound 0.01 µM
[7] = second compound 0.01 µM, first compound 0.0316 µM
[8] = second compound 0.01 µM, first compound 0.1 µM
[9] = second compound 0.0316 µM, first compound 0.00316 µM
[10] = second compound 0.0316 µM, first compound 0.01 µM
[11] = second compound 0.0316 µM, first compound 0.0316 µM
[12] = second compound 0.0316 µM, first compound 0.1 µM
[13] = second compound 0.1 µM, first compound 0.00316 µM
[14] = second compound 0.1 µM, first compound 0.01 µM
[15] = second compound 0.1 µM, first compound 0.0316 µM
[16] = second compound 0.1 µM, first compound 0.1 µM
[17] = second compound 0.316 µM, first compound 0.00316 µM
[18] = second compound 0.316 µM, first compound 0.01 µM
[19] = second compound 0.316 µM, first compound 0.0316 µM
[20] = second compound 0.316 µM, first compound 0.1 µM
[21] = second compound 1 µM, first compound 0.00316 µM
[22] = second compound 1 µM, first compound 0.01 µM
[23] = second compound 1 µM, first compound 0.0316 µM
[24] = second compound 1 µM, first compound 0.1 µM
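Note: spheroids exposed to compounds for seven days.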
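Throughout, for viability, T/C: 100% = DMSO vehicle control viability.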

Structure (SMILES): CCN1CCN(Cc2ccc(Nc3ncc(F)c(-c4cc(F)c5nc(C)n(C(C)C)c5c4)n3)nc2)CC1 + COc1c(OCCCN2CCOCC2)ccc2c3n(c(=NC(=O)c4cnc(N)nc4)nc12)CCN3
- IC50 (second compound 0.00316 µM): > 1000 nM
- IC50 (second compound 0.01 µM): > 1000 nM
- IC50 (second compound 0.0316 µM): > 1000 nM
- IC50 (second compound 0.1 µM): < 3.16 nM
- IC50 (second compound 0.316 µM): < 3.16 nM
- IC50 (second compound 1 µM): < 3.16 nM
- viability, T/C [1]: 99.7%
- viability, T/C [2]: 102%
- viability, T/C [3]: 117%
- viability, T/C [4]: 111%
- viability, T/C (second compound 0.00316 µM, first compound 0.316 µM): 119%
- viability, T/C (second compound 0.00316 µM, first compound 1 µM): 105%
- viability, T/C [5]: 98.6%
- viability, T/C [6]: 91%
- viability, T/C [7]: 99%
- viability, T/C [8]: 125%
- viability, T/C (second compound 0.01 µM, first compound 0.316 µM): 113%
- viability, T/C (second compound 0.01 µM, first compound 1 µM): 102%
- viability, T/C [9]: 83.7%
- viability, T/C [10]: 86.6%
- viability, T/C [11]: 77.3%
- viability, T/C [12]: 80.7%
- viability, T/C (second compound 0.0316 µM, first compound 0.316 µM): 90%
- viability, T/C (second compound 0.0316 µM, first compound 1 µM): 80%
- viability, T/C [13]: 43.1%
- viability, T/C [14]: 44%
- viability, T/C [15]: 43.4%
- viability, T/C [16]: 36.6%
- viability, T/C (second compound 0.1 µM, first compound 0.316 µM): 41.9%
- viability, T/C (second compound 0.1 µM, first compound 1 µM): 45.9%
- viability, T/C [17]: 13.6%
- viability, T/C [18]: 15.5%
- viability, T/C [19]: 14.5%
- viability, T/C [20]: 16.4%
- viability, T/C (second compound 0.316 µM, first compound 0.316 µM): 19.8%
- viability, T/C (second compound 0.316 µM, first compound 1 µM): 30%
- viability, T/C [21]: 11.4%
- viability, T/C [22]: 14.3%
- viability, T/C [23]: 13.9%
- viability, T/C [24]: 11.7%
- viability, T/C (second compound 1 µM, first compound 0.316 µM): 18.3%
- viability, T/C (second compound 1 µM, first compound 1 µM): 27.4%

Structure (SMILES): CC(C)n1nc(-c2ccc3oc(N)nc3c2)c2c(N)ncnc21 + COc1c(OCCCN2CCOCC2)ccc2c3n(c(=NC(=O)c4cnc(N)nc4)nc12)CCN3
- IC50 (second compound 0.00316 µM): 59.1 nM
- IC50 (second compound 0.01 µM): 48.8 nM
- IC50 (second compound 0.0316 µM): 18 nM
- IC50 (second compound 0.1 µM): < 0.316 nM
- IC50 (second compound 0.316 µM): < 0.316 nM
- IC50 (second compound 1 µM): < 0.316 nM
- viability, T/C (second compound 0.00316 µM, first compound 0.000316 µM): 94.2%
- viability, T/C (second compound 0.00316 µM, first compound 0.001 µM): 99%
- viability, T/C [1]: 97.3%
- viability, T/C [2]: 84%
- viability, T/C [3]: 62.8%
- viability, T/C [4]: 39.6%
- viability, T/C (second compound 0.01 µM, first compound 0.000316 µM): 98.1%
- viability, T/C (second compound 0.01 µM, first compound 0.001 µM): 83.9%
- viability, T/C [5]: 83.3%
- viability, T/C [6]: 74%
- viability, T/C [7]: 59.6%
- viability, T/C [8]: 35.4%
- viability, T/C (second compound 0.0316 µM, first compound 0.000316 µM): 72.1%
- viability, T/C (second compound 0.0316 µM, first compound 0.001 µM): 72.2%
- viability, T/C [9]: 85.8%
- viability, T/C [10]: 52%
- viability, T/C [11]: 44.3%
- viability, T/C [12]: 23.6%
- viability, T/C (second compound 0.1 µM, first compound 0.000316 µM): 41.4%
- viability, T/C (second compound 0.1 µM, first compound 0.001 µM): 39.7%
- viability, T/C [13]: 40.2%
- viability, T/C [14]: 31.8%
- viability, T/C [15]: 23.9%
- viability, T/C [16]: 13.4%
- viability, T/C (second compound 0.316 µM, first compound 0.000316 µM): 17.7%
- viability, T/C (second compound 0.316 µM, first compound 0.001 µM): 17.5%
- viability, T/C [17]: 15.3%
- viability, T/C [18]: 13.8%
- viability, T/C [19]: 14.3%
- viability, T/C [20]: 8.89%
- viability, T/C (second compound 1 µM, first compound 0.000316 µM): 13.2%
- viability, T/C (second compound 1 µM, first compound 0.001 µM): 10.9%
- viability, T/C [21]: 10.3%
- viability, T/C [22]: 12.2%
- viability, T/C [23]: 12.9%
- viability, T/C [24]: 8.5%
